The source of these data is US20020058275A1, “Compositions, kits, and methods for effecting adenine nucleotide modulation of DNA mismatch recognition proteins” (Thomas Jefferson University, priority 1997, published 2002).

For data set [1], the target named is T1, hMSH2:hMSH6 heterodimer (Homo sapiens, UniProt P43246+P52701).
T1 construct: made in house; host or cells: SF9 insect cells, baculovirus (pFastBac dual)
The experiment in a line: Gel mobility shift assay of adenine nucleotide effects on mismatch binding and release. The data set is classed as biochemical. Particulars: for effect on G/T mismatch binding / release of the heterodimer from G/T-mismatched DNA substrate: nucleotide added to the mismatch binding reaction mixture, FIG. 3 at 25 and 250 micromolar; for IC50: G/T-mismatched DNA substrate, read-out: IC50 (concentration required to cause release of 50% of a population of heterodimers from a G/T-mismatched DNA substrate); for S-shifted material re-associated with the DNA as NS-shifted heterodimer: increasing amounts of nucleotide added.

In data set [2] the target is T1, hMSH2:hMSH6 heterodimer. The experiment in a line: ADP exchange assay (filter binding of [3H]-ADP). Particulars: excess non-labeled ATP. How it is done: The ADP-ATP exchange rate was determined in a reaction mixture which comprised Buffer Q, 2.3 micromolar [^3H]-ADP, and 60 nanomolar hMSH2:hMSH6 heterodimer. Buffer Q comprised 25 millimolar HEPES which had been adjusted to pH 7.8 using NaOH, 75 millimolar NaCl, 10 millimolar MgCl2, 1 millimolar DTT, and 15% (v/v) glycerol. This reaction mixture was incubated for ten minutes at room temperature. 240 nanomolar G/T-mismatched 39-base pair DNA substrate was added to the reaction mixture, and the incubation was continued for an additional ten minutes. The final volume of the reaction mixture was 10 microliters. […] Reactions were incubated at 25° C. for a selected time and then halted by diluting the reaction mixture with 4 milliliters of an ice-cold stop buffer comprising 25 millimolar HEPES which had been adjusted to pH 7.8 using NaOH, 100 millimolar NaCl, and 10 millimolar MgCl2.
Each halted reaction mixture was immediately filtered on a HAWP nitrocellulose membrane (Millipore, Bedford, Mass.) and washed thrice with 4 milliliters of the ice-cold stop buffer. […] Radioactivity retained on the filters was quantified using a Beckman scintillation counter. […] The amount of [^3H]-ADP retained on the membrane to which the control reaction mixture was applied was considered to correspond to the amount of radioactivity retained when 100% of the complex had [^3H]-ADP bound thereto.

In data set [3] the test system is homologous 81-base pair DNA substrate. The experiment in a line: Gel mobility shift and DNase footprint assays of heterodimer binding to homoduplex DNA. Particulars: homoduplex concentrations greater than 400 nanomolar. The protocol: Gel mobility shift assays were performed by incubating a hMSH2:hMSH6 heterodimer and 9 femtomoles of either the ^32P-labeled homologous 81-base pair DNA substrate or the ^32P-labeled G/T-mismatched 81-base pair DNA substrate in a buffer comprising 50 millimolar NaCl, 25 millimolar HEPES buffer which had been adjusted to pH 7.5 using NaOH, 1 millimolar DTT, 0.01 millimolar EDTA, and 15% (v/v) glycerol. The buffer included 10 nanograms per microliter of poly dI-dC (Pharmacia LKB Biotechnology Inc., Piscataway, N.J.). […] In certain experiments described herein, the incubation mixture further comprised selected concentrations of nucleotides or non-labeled DNA. In other experiments described herein, the incubation mixture further comprised 1 millimolar MgCl2 or 5 millimolar EDTA. […] Each incubation mixture was applied to a gel comprising 4% (w/v) polyacrylamide (29:1 ratio of acrylamide:bis-acrylamide) 4% (v/v) glycerol, 40 millimolar Tris acetate buffer (pH 7.8), and 1 millimolar EDTA. Electrophoresis was performed by applying 200 volts to the gel for two hours. Following electrophoresis, each gel was dried and quantitated using a phosphoimaging device obtained from Molecular Dynamics. […]

The subject of data set [4] is G/T-mismatched 81-base pair DNA substrate. The experiment in a line: Gel mobility shift and DNase footprint assays of heterodimer binding to mismatched DNA. How it is done: Gel mobility shift assays were performed by incubating a hMSH2:hMSH6 heterodimer and 9 femtomoles of either the ^32P-labeled homologous 81-base pair DNA substrate or the ^32P-labeled G/T-mismatched 81-base pair DNA substrate in a buffer comprising 50 millimolar NaCl, 25 millimolar HEPES buffer which had been adjusted to pH 7.5 using NaOH, 1 millimolar DTT, 0.01 millimolar EDTA, and 15% (v/v) glycerol. The buffer included 10 nanograms per microliter of poly dI-dC (Pharmacia LKB Biotechnology Inc., Piscataway, N.J.). […] In certain experiments described herein, the incubation mixture further comprised selected concentrations of nucleotides or non-labeled DNA. In other experiments described herein, the incubation mixture further comprised 1 millimolar MgCl2 or 5 millimolar EDTA. […] Each incubation mixture was applied to a gel comprising 4% (w/v) polyacrylamide (29:1 ratio of acrylamide:bis-acrylamide) 4% (v/v) glycerol, 40 millimolar Tris acetate buffer (pH 7.8), and 1 millimolar EDTA. Electrophoresis was performed by applying 200 volts to the gel for two hours. Following electrophoresis, each gel was dried and quantitated using a phosphoimaging device obtained from Molecular Dynamics.
Incubation of the hMSH2:hMSH6 heterodimer with ^32P-labeled DNA substrates was performed as described for gel mobility shift assays, except that 18 femtomoles of 32p-labeled DNA substrate was used in each assay. Following incubation, 80 microliters of a buffer comprising 50 millimolar NaCl, 25 millimolar HEPES buffer which had been adjusted to pH 7.8 using NaOH, 1 millimolar DTT, 10 nanograms per microliter poly dI-dC, 1.25 millimolar CaCl2, 3.1 millimolar MgCl2, 10% (v/v) glycerol, and 33 picograms per microliter DNase (Boehringer Mannheim, Indianapolis, Ind.) was added to each incubation mixture. […]

Data set [5] deals with T2, hMSH2:hMSH6 heterodimer ATPase (Homo sapiens, UniProt P43246+P52701).
T2 construct: made in house; host or cells: SF9 insect cells, baculovirus (pFastBac dual)
T2 sequence (P43246 whole entry): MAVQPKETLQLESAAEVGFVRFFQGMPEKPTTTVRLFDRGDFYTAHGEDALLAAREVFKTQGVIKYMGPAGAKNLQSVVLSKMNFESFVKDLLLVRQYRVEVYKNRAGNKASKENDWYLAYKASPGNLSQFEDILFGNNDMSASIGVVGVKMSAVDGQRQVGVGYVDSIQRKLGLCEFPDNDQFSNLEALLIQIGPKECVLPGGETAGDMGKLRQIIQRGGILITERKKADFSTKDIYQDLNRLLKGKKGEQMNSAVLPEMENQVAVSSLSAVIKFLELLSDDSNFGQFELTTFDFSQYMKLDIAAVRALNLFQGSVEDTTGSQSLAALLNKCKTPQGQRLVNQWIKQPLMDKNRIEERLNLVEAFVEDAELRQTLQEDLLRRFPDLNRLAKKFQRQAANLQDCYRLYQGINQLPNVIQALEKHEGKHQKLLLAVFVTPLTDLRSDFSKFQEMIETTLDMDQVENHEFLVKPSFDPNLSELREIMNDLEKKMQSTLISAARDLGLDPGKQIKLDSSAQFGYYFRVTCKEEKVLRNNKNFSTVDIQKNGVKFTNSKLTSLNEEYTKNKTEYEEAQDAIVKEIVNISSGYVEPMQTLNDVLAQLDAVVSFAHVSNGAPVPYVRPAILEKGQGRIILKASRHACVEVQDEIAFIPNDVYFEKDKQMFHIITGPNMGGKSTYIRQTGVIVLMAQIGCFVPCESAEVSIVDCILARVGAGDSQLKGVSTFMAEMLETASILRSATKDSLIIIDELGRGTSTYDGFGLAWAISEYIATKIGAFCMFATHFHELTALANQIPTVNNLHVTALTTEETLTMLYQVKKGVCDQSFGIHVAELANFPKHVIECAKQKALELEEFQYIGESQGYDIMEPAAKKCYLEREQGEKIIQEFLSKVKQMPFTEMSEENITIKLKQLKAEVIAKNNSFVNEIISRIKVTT
T2 sequence (P52701 whole entry): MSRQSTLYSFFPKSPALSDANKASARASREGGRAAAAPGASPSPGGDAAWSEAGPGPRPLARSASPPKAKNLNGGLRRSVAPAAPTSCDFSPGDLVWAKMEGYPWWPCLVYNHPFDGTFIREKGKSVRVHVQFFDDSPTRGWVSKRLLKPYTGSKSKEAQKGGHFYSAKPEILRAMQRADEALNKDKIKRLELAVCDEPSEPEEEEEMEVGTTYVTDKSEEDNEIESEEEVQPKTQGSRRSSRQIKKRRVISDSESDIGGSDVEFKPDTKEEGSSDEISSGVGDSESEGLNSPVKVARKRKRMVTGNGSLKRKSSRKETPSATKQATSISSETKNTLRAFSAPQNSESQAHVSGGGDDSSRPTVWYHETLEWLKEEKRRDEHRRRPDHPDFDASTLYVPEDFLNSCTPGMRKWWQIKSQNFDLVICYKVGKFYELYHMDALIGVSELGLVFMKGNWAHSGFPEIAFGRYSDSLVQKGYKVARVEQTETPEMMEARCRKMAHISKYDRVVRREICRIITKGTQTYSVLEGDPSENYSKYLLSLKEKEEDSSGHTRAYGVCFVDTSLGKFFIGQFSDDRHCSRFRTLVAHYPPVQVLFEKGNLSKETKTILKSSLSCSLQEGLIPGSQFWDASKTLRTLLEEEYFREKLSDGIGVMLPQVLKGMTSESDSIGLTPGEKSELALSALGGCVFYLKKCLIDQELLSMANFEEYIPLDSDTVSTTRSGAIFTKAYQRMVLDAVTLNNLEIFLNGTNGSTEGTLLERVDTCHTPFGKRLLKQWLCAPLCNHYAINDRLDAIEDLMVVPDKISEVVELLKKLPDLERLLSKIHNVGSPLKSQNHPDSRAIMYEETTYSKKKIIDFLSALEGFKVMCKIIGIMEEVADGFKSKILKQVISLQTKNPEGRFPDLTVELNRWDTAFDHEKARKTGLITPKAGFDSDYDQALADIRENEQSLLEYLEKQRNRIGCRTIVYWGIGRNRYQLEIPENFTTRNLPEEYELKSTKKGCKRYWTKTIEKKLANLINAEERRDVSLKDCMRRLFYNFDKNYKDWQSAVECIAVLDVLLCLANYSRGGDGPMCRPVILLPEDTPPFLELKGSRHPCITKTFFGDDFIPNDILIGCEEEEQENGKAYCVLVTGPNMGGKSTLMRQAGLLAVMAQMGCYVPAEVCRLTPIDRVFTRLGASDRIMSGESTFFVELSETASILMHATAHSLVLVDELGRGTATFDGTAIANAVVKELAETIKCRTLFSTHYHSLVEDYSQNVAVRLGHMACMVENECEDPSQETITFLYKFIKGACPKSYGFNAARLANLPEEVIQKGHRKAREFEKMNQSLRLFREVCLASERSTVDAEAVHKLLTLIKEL
The experiment in a line: ATPase assays (steady state and initial velocity). It is filed as biochemical. The protocol: Buffer P comprised 40 millimolar HEPES which had been adjusted to pH 7.8 using NaOH, 75 millimolar NaCl, 10 millimolar MgCl2, 1.75 millimolar DTT, and 0.075 millimolar EDTA, and 15% (v/v) glycerol. Steady state reaction measurements were made using 60 nanomolar hMSH2:hMSH6 heterodimer and either 240 nanomolar homoduplex 39-base pair DNA substrate or 240 nanomolar G/T mismatched 39-base pair DNA substrate. Reaction mixtures were incubated at 37° C. for thirty minutes, and the reaction was stopped by addition of 400 microliters of a solution comprising 10% (w/v) activated charcoal (Sigma Chemical Co., St. Louis, Mo.) and 1 millimolar EDTA. Charcoal was pelleted by centrifuging the mixture at 10,000 rotations per minute for ten minutes. The 32p content of duplicate 100 microliter aliquots of the supernatant was assessed by liquid scintillation.
Aliquots were removed at selected times and electrophoresed as described herein. A control aliquot was removed and prepared for electrophoresis prior to addition of the MgCl2-containing Buffer P to the reaction mixture.
TLC was performed as previously described (Fishel et al., 1988, Proc. Natl. Acad. Sci. USA 85:36-40).

The target of data set [6] is T3, hMSH2:hMSH6 heterodimer (Homo sapiens, UniProt P43246;P52701 P43246:1-934,P52701:1-1360). The experiment in a line: footprint; DNase footprint; about 25 nt asymmetrically protected on both strands; no adenine nucleotide. The note with it: tags: 6xHis at N-terminus of hMSH6; Sf9 baculovirus (pFastBac dual) co-expression; label: 32P 5' end; single G/T mismatch.
T3 sequence (P43246 whole entry, chain 1 of 2): as the sequence (P43246 whole entry) above
T3 sequence (P52701 whole entry, chain 2 of 2): as the sequence (P52701 whole entry) above
Experimental: (§1) The apparent dissociation constant (Kd) was determined in a simple buffer system comprising neither an adenine nucleotide nor magnesium using the homologous 81-base pair DNA substrate and the G/T-mismatched 81-base pair DNA substrate described herein.
The target of data set [7] is T3, hMSH2:hMSH6 heterodimer. The experiment in a line: EMSA; apparent Kd; no adenine nucleotide, no Mg; 50 mM NaCl, HEPES pH 7.5, poly dI-dC, 37 C. The note with it: tags: 6xHis at N-terminus of hMSH6; Sf9 baculovirus (pFastBac dual) co-expression; label: 32P 5' end; single G/T mismatch. (In general: In EMSA bound probe runs differently from free probe, usually more slowly.)
Experimental: (§2) The buffer included 10 nanograms per microliter of poly dI-dC (Pharmacia LKB Biotechnology Inc., Piscataway, N.J.). […] In certain experiments described herein, the incubation mixture further comprised selected concentrations of nucleotides or non-labeled DNA. In other experiments described herein, the incubation mixture further comprised 1 millimolar MgCl₂ or 5 millimolar EDTA. […] Each incubation mixture was applied to a gel comprising 4% (w/v) polyacrylamide (29:1 ratio of acrylamide:bis-acrylamide) 4% (v/v) glycerol, 40 millimolar Tris acetate buffer (pH 7.8), and 1 millimolar EDTA. Electrophoresis was performed by applying 200 volts to the gel for two hours. Following electrophoresis, each gel was dried and quantitated using a phosphoimaging device obtained from Molecular Dynamics.
as §1

Data set [8] deals with T3, hMSH2:hMSH6 heterodimer. The experiment in a line: EMSA; no NS product observed with 39-bp homoduplex. The note with it: tags: 6xHis at N-terminus of hMSH6; Sf9 baculovirus (pFastBac dual) co-expression; fully complementary homoduplex.
Experimental: as §2
The mark [9] stands for this setting: 0.2 millimolar ATP, 1 millimolar MgCl2, ADP 0 to 3.2 millimolar.
Setting [10] is: ATP alone as a substrate (absence of DNA).
The mark [11] stands for this setting: ATP and G/C-mismatched DNA as substrates.
[12] abbreviates: ATP and G/T-mismatched DNA as substrates.

T1 sequence (P43246 whole entry): as the sequence (P43246 whole entry) above
T1 sequence (P52701 whole entry): as the sequence (P52701 whole entry) above

Regarding `Nc1ncnc2c1ncn2[C@@H]1O[C@H](COP(=O)(O)OP(=O)(O)NP(=O)(O)O)[C@@H](O)[C@H]1O` [AMP-PNP, adenylyl-imidodiphosphate], the “effect on G/T mismatch binding / release of the heterodimer from G/T-mismatched DNA substrate” value (shortened to “effect on G/T mismatch binding / release”) at hMSH2:hMSH6 heterodimer [1] is “Failure of AMP-PNP and AMP-PCP to stimulate release”.
The same measure, in the same setting: next, `Nc1ncnc2c1ncn2[C@@H]1O[C@H](COP(=O)(O)OP(=O)(O)CP(=O)(O)O)[C@@H](O)[C@H]1O` [AMP-PCP, adenyl-(beta-, gamma-methylene)-diphosphonate]: “Failure of AMP-PNP and AMP-PCP to stimulate release”.
On to “Adenosine-5′-O-3-thiotriphosphate [ATP-gamma-S]”, for which, at hMSH2:hMSH6 heterodimer [1], the IC50 worked out at 3000 nM and the “S-shifted material re-associated with the DNA as NS-shifted heterodimer” value is recorded as “approximately 15%”. The “mismatched DNA substrate binding activity recovered after magnesium addition” value at hMSH2:hMSH6 heterodimer [1] (following incubation at 37° C., time not stated) is on record as “about 22%”.
For the molecule `Nc1ncnc2c1ncn2[C@@H]1O[C@H](COP(=O)(O)OP(=O)(O)O)[C@@H](O)[C@H]1O` [ADP], at hMSH2:hMSH6 heterodimer [2] (absence of DNA), the “half-life of the ADP-bound heterodimer” value was “greater than eight hundred”. Also, on hMSH2:hMSH6 heterodimer [2] (presence of G/T-mismatched DNA substrate), the “half-life of the ADP-bound heterodimer” value is “less than two”. Moreover, at hMSH2:hMSH6 heterodimer [1] (setting [9]), the “excess of ADP giving approximately complete reversal of ATP-caused substrate release” value is listed as 16 fold and the “excess of ADP to ATP giving reversal of approximately half of the ATP-caused substrate release” value is 2- to 3 fold. In addition, the “effect on G/T mismatch binding / release” value on hMSH2:hMSH6 heterodimer [1] is listed as “increased binding affinity”.
Turning to `Nc1ncnc2c1ncn2[C@H]1C[C@H](O)[C@@H](COP(=O)(O)OP(=O)(O)OP(=O)(O)O)O1` [dATP, 2′-deoxy adenosine triphosphate], the “effect on G/T mismatch binding / release” value on hMSH2:hMSH6 heterodimer [1] is “caused release”.
Turning to “hMSH2:hMSH6 heterodimer: purified human mismatch recognition complex of hMSH2 and six-histidine-tagged hMSH6, overexpressed in SF9 insect cells”, in data set [3], the “saturability of binding of non-mismatched DNA” value was “not saturable”. Further, the “half-life of the G/T-mismatched DNA substrate-bound heterodimer” value in data set [4] (400-fold excess of non-labeled homoduplex DNA, no ATP) is recorded as “greater than ten”. Also, the Kd in data set [4] (buffer comprising neither an adenine nucleotide nor magnesium, gel shift and DNase footprint assays, read-out: apparent dissociation constant (Kd) for G/T mismatches) was around 20 nM. Further, in data set [4] (compared with literature values for hMSH2 alone), the “efficiency of binding to a G/T mismatch relative to hMSH2 alone” value is “at least ten”.
One may read the Km as the concentration of substrate that gives half-maximal velocity. As to `Nc1ncnc2c1ncn2[C@@H]1O[C@H](COP(=O)(O)OP(=O)(O)OP(=O)(O)O)[C@@H](O)[C@H]1O` [ATP], the “calculated Kcat for ATP” value in data set [5] (37° C.) is above 0.333 s⁻¹. Also, in data set [5] (setting [10]), the Km was around 10 µM and the kcat result is “about 0.9 minute^1”. For the same molecule, in data set [5] (setting [11]), the Km is around 23 µM and the kcat result is on record as “about 7.4 minute-^1”. Further, in data set [5] (setting [12]), the Km was around 46 µM and the kcat entry is listed as “about 26 minute-^1”. The “mismatched DNA substrate binding activity recovered after magnesium addition” value on hMSH2:hMSH6 heterodimer [1] (15 micromolar nucleotide, ten minutes of incubation at 37° C.) is given as around 70%. Also, on hMSH2:hMSH6 heterodimer [1], the IC50 is around 3000 nM and the “S-shifted material re-associated with the DNA as NS-shifted heterodimer” value is reported as “approximately 15%”. On hMSH2:hMSH6 heterodimer [1] (homoduplex DNA), the “effect on binding of the heterodimer to homoduplex DNA (NS binding)” value is recorded as “not affected”.

B1: G/T-mismatched 81-bp duplex (dsDNA)
DNA 1: AAAGCTGGAGCTGAAGCTTAGCTTAGGATCATCGAGGATCGAGCTCGGTGCAATTCAGCGGTACCCAATTCGCCCTATAGT
DNA 2: ACTATAGGGCGAATTGGGTACCGCTGAATTGCACCGAGCTTGATCCTCGATGATCCTAAGCTAAGCTTCAGCTCCAGCTTT
modifications: [G41 (strand 1) opposite T41 (strand 2), G/T mismatch]
B1: the Kd with hMSH2:hMSH6 heterodimer [6] and with hMSH2:hMSH6 heterodimer [7] was 20 nM throughout.

B2: homologous 39-bp duplex (dsDNA)
DNA 1: CGGCGAATTCCACCAAGCTTGATCGCTCGAGGTACCAGG
DNA 2: CCTGGTACCTCGAGCGATCAAGCTTGGTGGAATTCGCCG
Consider B2, for which, in the data set with hMSH2:hMSH6 heterodimer [8], the binding result is listed as “no binding”.
